Reference: US20180303807A1, “ANDROGEN RECEPTOR LIGANDS” (DUKE UNIVERSITY, priority 2015, published 2018)
Changes are numbered by the printed parent chain.

Assays:
Format in all cases: cell-based
AR [1] = molecular target: T1, AR (Homo sapiens, UniProt P10275); test: Reporter gene assay, AR transcriptional (MMTV-Luc) in CV1 cells; conditions: pcDNA-AR + MMTV-Luc, 0.1 nM R1881 plus test compound, 24 hrs, read-out: B1 = AR transcriptional IC50 (μM) in CV1 cells
T1 construct: expressed in transfected cells; host or cells: CV1 cells
T1 sequence (P10275 1-920): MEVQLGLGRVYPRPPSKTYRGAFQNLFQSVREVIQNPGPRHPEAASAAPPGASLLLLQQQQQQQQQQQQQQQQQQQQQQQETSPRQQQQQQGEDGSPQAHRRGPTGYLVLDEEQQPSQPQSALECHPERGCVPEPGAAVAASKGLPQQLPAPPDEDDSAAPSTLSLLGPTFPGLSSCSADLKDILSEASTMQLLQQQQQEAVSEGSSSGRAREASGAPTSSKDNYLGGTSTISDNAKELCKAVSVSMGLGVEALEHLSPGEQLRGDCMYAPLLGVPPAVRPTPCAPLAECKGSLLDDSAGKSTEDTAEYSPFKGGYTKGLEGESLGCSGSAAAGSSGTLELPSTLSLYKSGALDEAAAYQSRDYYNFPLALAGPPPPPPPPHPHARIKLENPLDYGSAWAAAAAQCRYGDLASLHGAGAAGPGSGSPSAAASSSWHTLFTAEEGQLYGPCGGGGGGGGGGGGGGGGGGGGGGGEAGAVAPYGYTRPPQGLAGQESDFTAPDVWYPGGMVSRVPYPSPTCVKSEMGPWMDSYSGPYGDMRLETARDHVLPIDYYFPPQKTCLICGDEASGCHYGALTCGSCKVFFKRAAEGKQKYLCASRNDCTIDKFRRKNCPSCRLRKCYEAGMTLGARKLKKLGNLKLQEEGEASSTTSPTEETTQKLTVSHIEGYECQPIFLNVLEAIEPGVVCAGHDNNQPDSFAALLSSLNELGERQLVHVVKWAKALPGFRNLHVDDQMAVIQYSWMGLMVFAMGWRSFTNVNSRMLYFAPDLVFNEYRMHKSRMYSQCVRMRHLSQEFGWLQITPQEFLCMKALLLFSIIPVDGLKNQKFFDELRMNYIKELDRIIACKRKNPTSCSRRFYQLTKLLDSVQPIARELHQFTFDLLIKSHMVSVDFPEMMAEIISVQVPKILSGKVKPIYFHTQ
Method: (§1) Reporter Gene Assay (IC50 determination, Table 2, B1-B3). CV1 cells were seeded into 96-well cell culture plates and transfected with Lipofectin. For AR transcriptional assays, the DNA mixture consisted of pcDNA-AR, MMTV-Luc (androgen responsive reporter gene), and Renilla-Luc (for assessing transfection efficiency and toxicity). Following overnight incubation, cells were induced with hormone (0.1 nM R1881 (synthetic AR agonist) plus increasing concentrations of test compound) for 24 hrs. Cells were lysed and luciferase activity was quantified using Dual Luciferase Reagent (DLR). IC50 determination was assessed using GraphPad Prism software.

AR [2] = molecular target: T2, AR (Homo sapiens, UniProt P10275, T878A); test: In Cell Western AR degradation assay in LNCaP cells; conditions: 18 hrs, greater than 50% degradation at 10 μM (method says 20 μM)
T2 construct: endogenous in cells; host or cells: LNCaP cells
T2 sequence (P10275 1-920 T878A): T1 sequence (P10275 1-920) with T878A
Method: In Cell Western (AR degradation Assay, Table 2, B10). LNCaP cells were plated in 96-well clear bottom black plates (20K cells/well) in RPMI supplemented with 8% CFS. Following 48 hr incubation, cells were treated with hormone (20 μM test compound) for 18 hrs. Cells were fixed with formaldehyde (3.7%) and permeabilized using PBS (0.1% TRITON X-100). Cells were incubated with anti-AR antibody (N20, 1:2000), washed with PBS (0.1% Tween), and stained with 2nd antibody (Biotium CF770 goat anti-rabbit, 1:2000). AR protein expression was assessed using the LI-COR Odyssey imaging system. DRAQ5 (DNA stain, 1:10,000, Thermo Scientific) was used to normalize AR protein expression.
For B4-B7, scoring system is based on the relative AR target gene agonist/antagonist activity of test compounds when compared to benchmark compounds enzalutamide or bicalutamide. […] The lack of agonist activity is desirable for therapies intended to treat CRPC. For B4 and B6, a score of 1 indicates less agonism (highly desired activity) than benchmark compound enzalutamide, a score of 2 indicates equal agonism to enzalutamide (desirable), a score of 3 indicates agonism between enzalutamide and bicalutamide (less desirable activity), a score of 4 indicates equal agonism to bicalutamide (liability), and a score of 5 indicates higher agonism than bicalutamide (liability). For B5 and B7 a score of 1 indicates higher antagonist efficacy (highly desired activity) than benchmark compound enzalutamide, a score of 2 indicates equal antagonist efficacy to enzalutamide (desirable), a score of 3 indicates antagonist efficacy between enzalutamide and bicalutamide (less desirable activity), a score of 4 indicates antagonist efficacy equal to bicalutamide (liability), and a score of 5 indicates antagonist efficacy worse than bicalutamide (liability) For B9, Compounds that degrade AR (greater than 50% degradation at 10 μM) are indicated.

CV1 cells = test: Toxicity of test compound in the CV1 reporter gene assay (Renilla-Luc)
Method: as §1

Structure (SMILES)	IC50 (AR [1]) [µM]	B9 = AR degradation in LNCaP cells (In-Cell Western) (AR [2])	B2 = % Toxicity of test compound (20 μM) (CV1 cells) [%]	B3 = % Toxicity of test compound (60 μM) (CV1 cells) [%]
CC1(C)CC(=O)C2=C(C1)Nc1ccc3nccnc3c1C2c1ccc(F)c(F)c1 (racemic) [Compound A83, (±)-12-(3,4-difluorophenyl)-9,9-dimethyl-8,9,10,12-tetrahydropyrazino[2,3-a]acridin-11(7H)-one]	7.4	Degrader (Compounds that degrade AR (greater than 50% degradation at 10 μM) are indicated)		
CC1(C)CC(=O)C2=C(C1)Nc1ccc3ncccc3c1C2c1ccc(Cl)c([N+](=O)[O-])c1 (centres unmarked) [Compound A5]	3.3		24	68
CC1(C)CC(=O)C2=C(C1)Nc1ccc3ccccc3c1C2c1cccnc1 (centres unmarked) [Compound A13]	12		0	78
CC1(C)CC(=O)C2=C(C1)Nc1ccc3ccccc3c1C2c1c[nH]c2ccccc12 (centres unmarked) [Compound A14]	> 10		0	0
O=C1CCCC2=C1C(c1ccc3c(c1)OCO3)c1c(ccc3ccccc13)N2 (centres unmarked) [Compound A15]	> 10		0	0
CC1(C)CC(=O)C2=C(C1)Nc1ccc3ccccc3c1C2c1cc([N+](=O)[O-])c(O)cc1Cl (centres unmarked) [Compound A16]	> 10		0	0
O=C1CCCC2=C1C(c1ccco1)c1c(ccc3ccccc13)N2 (centres unmarked) [Compound A17]	> 10		0	36
CC1(C)CC(=O)C2=C(C1)Nc1ccc3ccccc3c1C2c1ccc(-c2nnc(N)s2)cc1 (centres unmarked) [Compound A19]	> 10		0	87
O=C1CCCC2=C1C(c1ccc(O)cc1)c1c(ccc3ccccc13)N2 (centres unmarked) [Compound A20]	> 10		0	0
O=C1CCCC2=C1C(c1cccc([N+](=O)[O-])c1)c1c(ccc3ccccc13)N2 (centres unmarked) [Compound A21]	> 10		0	28
Cc1n[nH]c2c1C(c1ccc([N+](=O)[O-])cc1)C1=C(N2)C(C)(C)CCC1=O (centres unmarked) [Compound A23]	> 10		0	0
CC1(C)CC(=O)C2=C(C1)Nc1ccc3ncccc3c1C2c1ccc(O)cc1 (centres unmarked) [Compound A24]	> 10		0	35
O=[N+]([O-])c1ccc(C2C3=C(CCCC3)Nc3ccc4ccccc4c32)cc1 (centres unmarked) [Compound A25]	> 10		23	42

Continued, in another order:

IC50 (AR [1]) [µM]	Structure (SMILES)	B9 = AR degradation in LNCaP cells (In-Cell Western) (AR [2])	B2 = % Toxicity of test compound (20 μM) (CV1 cells) [%]	B3 = % Toxicity of test compound (60 μM) (CV1 cells) [%]
55	Cc1nc2ccc3c(c2nc1C)C(c1ccc(F)c(F)c1)C1=C(CC(C)(C)CC1=O)N3 (racemic) [Compound A84, (±)-12-(3,4-difluorophenyl)-2,3,9,9-tetramethyl-8,9,10,12-tetrahydropyrazino[2,3-a]acridin-11(7H)-one]	Degrader (Compounds that degrade AR (greater than 50% degradation at 10 μM) are indicated)		
> 10	O=C1C2=C(C(=O)c3ccccc31)C(c1ccc(F)c(F)c1)c1c(ccc3ncccc13)N2 (racemic) [Compound A85, (±)-14-(3,4-difluorophenyl)naphtho[2,3-b][4,7]phenanthroline-8,13(7H,14H)-dione]	Degrader (Compounds that degrade AR (greater than 50% degradation at 10 μM) are indicated)		
1.1	CC1(C)CC(=O)C2=C(C1)Nc1ccc3ncccc3c1C2c1ccc(Cl)cc1Cl (racemic) [Compound A88, (±)-12-(2,4-dichlorophenyl)-9,9-dimethyl-8,9,10,12-tetrahydrobenzo[b][4,7]phenanthrolin-11(7H)-one]	Degrader (Compounds that degrade AR (greater than 50% degradation at 10 μM) are indicated)		
> 10	CC1(C)CC(=O)C2=C(C1)Nc1cc(N3CCCC3)ccc1C2c1ccc(F)c(F)c1 (racemic) [Compound A90, (±)-9-(3,4-difluorophenyl)-3,3-dimethyl-6-(pyrrolidin-1-yl)-3,4,9,10-tetrahydroacridin-1(2H)-one]	Degrader (Compounds that degrade AR (greater than 50% degradation at 10 μM) are indicated)		
0.8	Cc1ccc(C2C3=C(CC(C)(C)CC3=O)Nc3ccc4ccccc4c32)s1 (centres unmarked) [Compound A106, 9,9-dimethyl-12-(5-methylthiophen-2-yl)-8,9,10,12-tetrahydrobenzo[a]acridin-11(7H)-one]			
1.2	CC1(C)CC(=O)C2=C(C1)Nc1ccc3cn[nH]c3c1C2c1ccc(Cl)s1 (centres unmarked) [Compound A108]			
3.2	CC1(C)CC(=O)C2=C(C1)Nc1ccc3cn[nH]c3c1C2c1ccc(Br)s1 (centres unmarked) [Compound A112]			
> 10	Cc1ccsc1C1C2=C(CC(C)(C)CC2=O)Nc2ccc3nccnc3c21 (centres unmarked) [Compound A115]			
